Measurements from ChEMBL document CHEMBL1201862, “PubChem BioAssay data set” (2004).
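Where inhibition never reached the appropriate level, the endpoint shown equals the highest concentration tested. Otherwise, values were interpolated linearly from a five-concentration, 48-hour dose response in 96-well plates. The concentration for 50% growth inhibition is given as GI50.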 Activity calls are given as the source filed them. Rule as the data show it: active = GI50 up to about 1.1 µM and inactive = higher.

Key:
Experiment in all cases: DTP human tumour cell line panel, 48 h
KM12 = test system: KM12
SR = test system: SR
SN12C = test system: SN12C
NCI-H226 = test system: NCI-H226
HCT-15 = test system: HCT-15
MOLT-4 = test system: MOLT-4
LOX IMVI = test system: LOX IMVI
CAKI-1 = test system: CAKI-1
ACHN = test system: ACHN
MDA-N = test system: MDA-N
RXF 393 = test system: RXF 393
NCI-H23 = test system: NCI-H23
EKVX = test system: EKVX
CCRF-CEM = test system: CCRF-CEM
SF-268 = test system: SF-268
SF-295 = test system: SF-295
M14 = test system: M14
HCC 2998 = test system: HCC 2998
PC-3 = test system: PC-3
NCI/ADR-RES = test system: NCI/ADR-RES
MDA-MB-231 = test system: MDA-MB-231
SNB-19 = test system: SNB-19
HL-60 = test system: HL-60
A498 = test system: A498
SNB-75 = test system: SNB-75
HOP-62 = test system: HOP-62
Hs-578T = test system: Hs-578T
UACC-257 = test system: UACC-257
DU-145 = test system: DU-145
SF-539 = test system: SF-539
UACC-62 = test system: UACC-62
OVCAR-5 = test system: OVCAR-5
OVCAR-8 = test system: OVCAR-8
T47D = test system: T47D
MDA-MB-435 = test system: MDA-MB-435
HCT-116 = test system: HCT-116
SW-620 = test system: SW-620
TK-10 = test system: TK-10
SK-MEL-5 = test system: SK-MEL-5
HOP-92 = test system: HOP-92
MCF7 = test system: MCF7
HT-29 = test system: HT-29
SK-MEL-28 = test system: SK-MEL-28
OVCAR-3 = test system: OVCAR-3
786-0 = test system: 786-0
SK-OV-3 = test system: SK-OV-3
NCI-H460 = test system: NCI-H460
K562 = test system: K562
U-251 = test system: U-251
COLO 205 = test system: COLO 205
A549 = test system: A549
Malme-3M = test system: Malme-3M
RPMI-8226 = test system: RPMI-8226
SK-MEL-2 = test system: SK-MEL-2
NCI-H522 = test system: NCI-H522
IGROV-1 = test system: IGROV-1
OVCAR-4 = test system: OVCAR-4
UO-31 = test system: UO-31

Question: With `CCOC(=S)SSSC(=S)OCC` as the compound, how does the GI50 (KM12) read?
Answer: 41.4 µM (inactive)

Question: What about the GI50 (SR) of the same compound?
Answer: 13.5 µM (inactive)

Question: What about the GI50 (SN12C) of the same compound?
Answer: 21.6 µM (inactive)

Question: And the GI50 (NCI-H226)?
Answer: 82.6 µM (inactive)

Question: What about the GI50 (HCT-15) of the same compound?
Answer: 19.5 µM

Question: What about the GI50 (MOLT-4) of the same compound?
Answer: 27.9 µM (inactive)

Question: What about the GI50 (LOX IMVI) of the same compound?
Answer: 25.1 µM (inactive)

Question: And the GI50 (CAKI-1)?
Answer: 29.9 µM (inactive)

Question: What about the GI50 (ACHN) of the same compound?
Answer: 19.1 µM (inactive)

Question: What about the GI50 (MDA-N) of the same compound?
Answer: 49.3 µM (inactive)

Question: What about the GI50 (RXF 393) of the same compound?
Answer: 47.9 µM (inactive)

Question: What about the GI50 (NCI-H23) of the same compound?
Answer: 33.4 µM (inactive)

Question: And the GI50 (EKVX)?
Answer: 48.5 µM (inactive)

Question: What about the GI50 (CCRF-CEM) of the same compound?
Answer: 30.5 µM (inactive)

Question: What about the GI50 (SF-268) of the same compound?
Answer: 71.3 µM (inactive)

Question: And the GI50 (SF-295)?
Answer: 51.5 µM (inactive)

Question: And the GI50 (M14)?
Answer: 27 µM (inactive)

Question: What about the GI50 (HCC 2998) of the same compound?
Answer: 68.4 µM (inactive)

Question: And the GI50 (PC-3)?
Answer: > 100 µM (inactive)

Question: And the GI50 (NCI/ADR-RES)?
Answer: 58.1 µM (inactive)

Question: What about the GI50 (MDA-MB-231) of the same compound?
Answer: 33.1 µM (inactive)

Question: What about the GI50 (SNB-19) of the same compound?
Answer: 65 µM (inactive)

Question: What about the GI50 (HL-60) of the same compound?
Answer: 76.6 µM (inactive)

Question: And the GI50 (A498)?
Answer: > 100 µM (inactive)

Question: What about the GI50 (SNB-75) of the same compound?
Answer: 28.2 µM (inactive)

Question: And the GI50 (HOP-62)?
Answer: 30.3 µM (inactive)

Question: And the GI50 (Hs-578T)?
Answer: > 100 µM (inactive)

Question: And the GI50 (UACC-257)?
Answer: 50.5 µM (inactive)

Question: What about the GI50 (DU-145) of the same compound?
Answer: 21 µM (inactive)

Question: And the GI50 (SF-539)?
Answer: 67.1 µM (inactive)

Question: And the GI50 (UACC-62)?
Answer: 37.9 µM (inactive)

Question: What about the GI50 (OVCAR-5) of the same compound?
Answer: 28.6 µM (inactive)

Question: What about the GI50 (OVCAR-8) of the same compound?
Answer: 13.8 µM (inactive)

Question: What about the GI50 (T47D) of the same compound?
Answer: 4.22 µM (inactive)

Question: And the GI50 (MDA-MB-435)?
Answer: 54.3 µM (inactive)

Question: And the GI50 (HCT-116)?
Answer: 20.8 µM (inactive)

Question: And the GI50 (SW-620)?
Answer: 32.5 µM (inactive)

Question: What about the GI50 (TK-10) of the same compound?
Answer: > 100 µM (inactive)

Question: What about the GI50 (SK-MEL-5) of the same compound?
Answer: 36.1 µM (inactive)

Question: What about the GI50 (HOP-92) of the same compound?
Answer: > 100 µM (inactive)

Question: And the GI50 (MCF7)?
Answer: 28.2 µM (inactive)

Question: And the GI50 (HT-29)?
Answer: 54.3 µM (inactive)

Question: And the GI50 (SK-MEL-28)?
Answer: > 100 µM (inactive)

Question: What about the GI50 (OVCAR-3) of the same compound?
Answer: 26.4 µM (inactive)

Question: And the GI50 (786-0)?
Answer: 15.2 µM (inactive)

Question: And the GI50 (SK-OV-3)?
Answer: > 100 µM (inactive)

Question: What about the GI50 (NCI-H460) of the same compound?
Answer: 30.7 µM (inactive)

Question: And the GI50 (K562)?
Answer: 26.3 µM (inactive)

Question: And the GI50 (U-251)?
Answer: 31.6 µM (inactive)

Question: And the GI50 (COLO 205)?
Answer: 55 µM (inactive)

Question: And the GI50 (A549)?
Answer: 33.7 µM (inactive)

Question: What about the GI50 (Malme-3M) of the same compound?
Answer: 16.3 µM (inactive)

Question: What about the GI50 (RPMI-8226) of the same compound?
Answer: 24 µM (inactive)

Question: What does the source list for `O/N=C(\CC(O)(C(F)(F)F)C(F)(F)F)c1cccc(Cl)c1`?
Answer: GI50 (KM12): 34.8 µM (inactive); GI50 (SR): 45.3 µM (inactive); GI50 (NCI-H226): 20.8 µM (inactive); GI50 (HCT-15): 32.4 µM; GI50 (MOLT-4): 15.5 µM (inactive); GI50 (LOX IMVI): 23 µM (inactive); GI50 (CAKI-1): 21.5 µM (inactive); GI50 (ACHN): 23.8 µM (inactive); GI50 (MDA-N): 37.3 µM (inactive); GI50 (RXF 393): 15.6 µM (inactive); GI50 (NCI-H23): 20.5 µM (inactive); GI50 (EKVX): 22.2 µM (inactive); GI50 (CCRF-CEM): 19.8 µM (inactive); GI50 (SF-295): 38.7 µM (inactive); GI50 (M14): 22.8 µM (inactive); GI50 (HCC 2998): 60 µM (inactive); GI50 (PC-3): 29.9 µM (inactive); GI50 (NCI/ADR-RES): 38 µM (inactive); GI50 (MDA-MB-231): 22.5 µM (inactive); GI50 (HL-60): 23.5 µM (inactive); GI50 (A498): 34 µM (inactive); GI50 (SNB-75): 18.2 µM (inactive); GI50 (SK-MEL-2): 22.7 µM (inactive); GI50 (Hs-578T): 21.5 µM (inactive); GI50 (UACC-257): 35.6 µM (inactive); GI50 (DU-145): 40.6 µM (inactive); GI50 (SF-539): 28.6 µM (inactive); GI50 (UACC-62): 38.9 µM (inactive); GI50 (OVCAR-5): 47.9 µM (inactive); GI50 (OVCAR-8): 37.4 µM (inactive); GI50 (T47D): 32.7 µM (inactive); GI50 (MDA-MB-435): 25.8 µM (inactive); GI50 (HCT-116): 37.4 µM (inactive); GI50 (NCI-H522): 30.5 µM (inactive); GI50 (SW-620): 37.8 µM (inactive); GI50 (TK-10): 22.3 µM (inactive); GI50 (SK-MEL-5): 16.6 µM (inactive); GI50 (HOP-92): 23.1 µM (inactive); GI50 (MCF7): 35 µM (inactive); GI50 (HT-29): 69.2 µM (inactive); GI50 (SK-MEL-28): 41.1 µM (inactive); GI50 (OVCAR-3): 19.8 µM (inactive); GI50 (786-0): 35.5 µM (inactive); GI50 (SK-OV-3): 22.7 µM (inactive); GI50 (NCI-H460): 43.3 µM (inactive); GI50 (IGROV-1): 27.1 µM (inactive); GI50 (K562): 30.2 µM (inactive); GI50 (U-251): 20.2 µM (inactive); GI50 (COLO 205): 35.6 µM (inactive); GI50 (A549): 35.9 µM (inactive); GI50 (OVCAR-4): 34.5 µM (inactive); GI50 (Malme-3M): 33.7 µM (inactive); GI50 (RPMI-8226): 29.9 µM (inactive)

Question: Which results are given for `CN(C)Cc1cc(C(=O)/C=C/c2c(Cl)cccc2Cl)cc(CN(C)C)c1O`?
Answer: GI50 (UO-31): 2.79 µM (inactive); GI50 (KM12): 2.65 µM (inactive); GI50 (SR): 3.18 µM (inactive); GI50 (SN12C): 5.82 µM (inactive); GI50 (NCI-H226): 14.4 µM (inactive); GI50 (HCT-15): 10.8 µM; GI50 (MOLT-4): 4.19 µM (inactive); GI50 (LOX IMVI): 1.77 µM (inactive); GI50 (CAKI-1): 2.88 µM (inactive); GI50 (ACHN): 2.8 µM (inactive); GI50 (MDA-N): 3.67 µM (inactive); GI50 (RXF 393): 5.7 µM (inactive); GI50 (NCI-H23): 14.6 µM (inactive); GI50 (EKVX): 10.9 µM (inactive); GI50 (CCRF-CEM): 3.74 µM (inactive); GI50 (SF-268): 11.9 µM (inactive); GI50 (SF-295): 8.51 µM (inactive); GI50 (M14): 4.91 µM (inactive); GI50 (HCC 2998): 19 µM (inactive); GI50 (PC-3): 5.64 µM (inactive); GI50 (NCI/ADR-RES): 4.57 µM (inactive); GI50 (MDA-MB-231): 4.61 µM (inactive); GI50 (SNB-19): 14.8 µM (inactive); GI50 (HL-60): 2.07 µM (inactive); GI50 (A498): 9.27 µM (inactive); GI50 (SNB-75): 3.34 µM (inactive); GI50 (HOP-62): 7.85 µM (inactive); GI50 (Hs-578T): 14 µM (inactive); GI50 (UACC-257): 4.46 µM (inactive); GI50 (DU-145): 8.2 µM (inactive); GI50 (SF-539): 14.5 µM (inactive); GI50 (OVCAR-5): 18.2 µM (inactive); GI50 (OVCAR-8): 3.55 µM (inactive); GI50 (T47D): 16.4 µM (inactive); GI50 (MDA-MB-435): 9.2 µM (inactive); GI50 (HCT-116): 6.04 µM (inactive); GI50 (NCI-H522): 2.98 µM (inactive); GI50 (SW-620): 4.12 µM (inactive); GI50 (TK-10): 14.4 µM (inactive); GI50 (SK-MEL-5): 3.76 µM (inactive); GI50 (HOP-92): 3.05 µM (inactive); GI50 (MCF7): 3.71 µM (inactive); GI50 (HT-29): 3.07 µM (inactive); GI50 (SK-MEL-28): 8.49 µM (inactive); GI50 (OVCAR-3): 5.7 µM (inactive); GI50 (786-0): 5.2 µM (inactive); GI50 (NCI-H460): 3.72 µM (inactive); GI50 (IGROV-1): 7.83 µM (inactive); GI50 (K562): 3.01 µM (inactive); GI50 (U-251): 11.4 µM (inactive); GI50 (COLO 205): 2.96 µM (inactive); GI50 (A549): 11.5 µM (inactive); GI50 (OVCAR-4): 8.55 µM (inactive); GI50 (Malme-3M): 3.69 µM (inactive); GI50 (RPMI-8226): 4.78 µM (inactive)
